Among the data in ChEMBL document CHEMBL5625223 (Eur J Med Chem, 2023) are Ki, Activity and pKb values, retold here.

Assay [1] concerns the target 5-hydroxytryptamine receptor 1D (Homo sapiens, UniProt P28221). As to the kind of experiment: Binding affinity to 5HT1D receptor (unknown origin) assessed as inhibition constant.
In another assay the target is T1, D(4) dopamine receptor (Homo sapiens, UniProt P21917).
T1 sequence (P21917 whole entry): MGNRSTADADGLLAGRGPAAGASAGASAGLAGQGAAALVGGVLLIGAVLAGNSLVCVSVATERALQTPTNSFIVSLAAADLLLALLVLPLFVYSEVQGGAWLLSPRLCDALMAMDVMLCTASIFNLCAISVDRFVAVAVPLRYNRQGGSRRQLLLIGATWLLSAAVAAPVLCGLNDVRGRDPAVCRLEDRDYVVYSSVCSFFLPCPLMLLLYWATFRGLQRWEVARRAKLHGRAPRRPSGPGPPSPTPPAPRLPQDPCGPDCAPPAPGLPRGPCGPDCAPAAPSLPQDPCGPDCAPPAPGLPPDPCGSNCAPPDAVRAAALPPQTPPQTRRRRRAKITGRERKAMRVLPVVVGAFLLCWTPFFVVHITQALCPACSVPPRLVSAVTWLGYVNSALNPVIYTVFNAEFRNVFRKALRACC
As to the kind of experiment: Binding affinity to dopamine D4 receptor (unknown origin) assessed as inhibition constant.

Assay [2] has as its target T2, 5-hydroxytryptamine receptor 2A (Homo sapiens, UniProt P28223). As to the kind of experiment: Displacement of [3H]ketanserin from human 5-HT2A receptor expressed in HEK293 cells at 10 uM incubated for 1 hr relative to control. It counts as cell-based.
Assay [3] addresses Adenosine receptor A2a (Homo sapiens) (UniProt P29274). As to the kind of experiment: Displacement of […] from human A2AR expressed in HEK cells at 10 uM relative to control. It counts as cell-based.
In assay [4] the target is Beta-3 adrenergic receptor (Homo sapiens, UniProt P13945). Nature of the assay: Binding affinity to beta3 adrenergic receptor (unknown origin) assessed as inhibition constant.
Beta-3 adrenergic receptor, sequence (P13945 whole entry): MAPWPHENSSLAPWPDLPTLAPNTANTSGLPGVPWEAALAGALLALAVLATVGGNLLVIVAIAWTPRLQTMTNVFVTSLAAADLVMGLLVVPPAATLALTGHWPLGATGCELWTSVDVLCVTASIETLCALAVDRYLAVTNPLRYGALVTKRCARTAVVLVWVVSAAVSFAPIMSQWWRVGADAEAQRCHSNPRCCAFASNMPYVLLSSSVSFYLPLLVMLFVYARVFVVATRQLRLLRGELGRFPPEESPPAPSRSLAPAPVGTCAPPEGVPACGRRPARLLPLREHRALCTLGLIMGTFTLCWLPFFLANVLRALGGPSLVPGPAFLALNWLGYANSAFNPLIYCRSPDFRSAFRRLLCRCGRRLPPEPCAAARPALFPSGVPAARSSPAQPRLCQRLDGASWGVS
Assay [5] deals with T3, Alpha-2C adrenergic receptor (Homo sapiens, UniProt P18825).
T3 sequence (P18825 whole entry): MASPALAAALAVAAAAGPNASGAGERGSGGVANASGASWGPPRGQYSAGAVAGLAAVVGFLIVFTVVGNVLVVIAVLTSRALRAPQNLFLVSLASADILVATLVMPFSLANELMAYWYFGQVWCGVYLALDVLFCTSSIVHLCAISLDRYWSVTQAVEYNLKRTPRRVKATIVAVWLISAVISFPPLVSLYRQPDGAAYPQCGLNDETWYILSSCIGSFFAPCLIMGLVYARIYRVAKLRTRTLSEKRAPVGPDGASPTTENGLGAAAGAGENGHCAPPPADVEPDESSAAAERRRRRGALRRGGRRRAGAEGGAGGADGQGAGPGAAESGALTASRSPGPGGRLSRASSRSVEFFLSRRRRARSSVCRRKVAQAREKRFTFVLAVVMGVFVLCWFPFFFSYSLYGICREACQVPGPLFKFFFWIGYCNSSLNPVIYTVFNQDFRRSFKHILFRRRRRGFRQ
Nature of the assay: Binding affinity to alpha2C receptor (unknown origin) assessed as inhibition constant.

The target of the next assay is T4, Adenosine receptor A3 (Homo sapiens, UniProt P0DMS8).
T4 sequence (P0DMS8 whole entry): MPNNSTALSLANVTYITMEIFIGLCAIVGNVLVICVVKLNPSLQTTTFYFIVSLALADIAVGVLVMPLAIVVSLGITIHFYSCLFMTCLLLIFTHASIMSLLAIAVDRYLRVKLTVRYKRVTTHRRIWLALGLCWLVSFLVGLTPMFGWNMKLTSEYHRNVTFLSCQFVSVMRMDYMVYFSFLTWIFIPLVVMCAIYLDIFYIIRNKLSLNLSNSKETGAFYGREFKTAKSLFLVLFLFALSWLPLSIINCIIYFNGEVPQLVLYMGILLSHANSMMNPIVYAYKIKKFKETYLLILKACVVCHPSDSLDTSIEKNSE
As to the kind of experiment: Displacement of […] from human A3AR expressed in HEK cells assessed as inhibition constant. Format: cell-based.

Assay [6] has as its target T5, 5-hydroxytryptamine receptor 2C (Homo sapiens) (UniProt P28335).
T5 sequence (whole entry): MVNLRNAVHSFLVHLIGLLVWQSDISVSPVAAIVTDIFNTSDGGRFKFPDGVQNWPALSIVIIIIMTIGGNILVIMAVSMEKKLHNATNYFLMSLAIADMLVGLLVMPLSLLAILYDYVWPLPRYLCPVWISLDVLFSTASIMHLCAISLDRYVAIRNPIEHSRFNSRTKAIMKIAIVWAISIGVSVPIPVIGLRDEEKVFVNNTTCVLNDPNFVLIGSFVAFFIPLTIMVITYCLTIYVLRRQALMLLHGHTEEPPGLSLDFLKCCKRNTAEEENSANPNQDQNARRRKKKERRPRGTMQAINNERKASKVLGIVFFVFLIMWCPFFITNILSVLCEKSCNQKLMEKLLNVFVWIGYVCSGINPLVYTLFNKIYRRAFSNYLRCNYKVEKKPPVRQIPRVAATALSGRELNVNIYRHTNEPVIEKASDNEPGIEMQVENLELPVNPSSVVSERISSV
As to the kind of experiment: Displacement of [3H]-Mesulergine from human 5-HT2C expressed in Flp-In-T-REx-293 cells at 10 uM incubated for 1 hr relative to control. Format: cell-based. The settings on record: filed as antagonist.

A further assay deals with T6, Adenosine receptor A1 (Homo sapiens, UniProt P30542).
T6 sequence (P30542 whole entry): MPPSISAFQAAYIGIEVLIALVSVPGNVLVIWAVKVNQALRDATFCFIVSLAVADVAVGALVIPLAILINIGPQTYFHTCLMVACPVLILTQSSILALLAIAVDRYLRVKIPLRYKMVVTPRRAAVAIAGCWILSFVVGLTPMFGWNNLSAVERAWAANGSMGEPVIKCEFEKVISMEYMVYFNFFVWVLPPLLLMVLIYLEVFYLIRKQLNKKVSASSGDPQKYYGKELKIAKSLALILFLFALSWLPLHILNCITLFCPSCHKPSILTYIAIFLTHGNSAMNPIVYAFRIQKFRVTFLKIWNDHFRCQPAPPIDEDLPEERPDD
As to the kind of experiment: Displacement of […] from human A1AR expressed in Flp-In-T-REx-293 cells assessed as inhibition constant. It counts as cell-based.

The target in a further assay is Translocator protein (Homo sapiens, UniProt P30536). Nature of the assay: Binding affinity to TSPO (unknown origin) assessed as inhibition constant.
Translocator protein, sequence (P30536 whole entry): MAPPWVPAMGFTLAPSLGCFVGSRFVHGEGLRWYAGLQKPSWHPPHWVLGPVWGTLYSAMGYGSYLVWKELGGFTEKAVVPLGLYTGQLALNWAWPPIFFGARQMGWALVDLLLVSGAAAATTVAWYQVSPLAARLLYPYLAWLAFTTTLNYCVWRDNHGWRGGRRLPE
Assay [7] concerns the target T2, 5-hydroxytryptamine receptor 2A. Nature of the assay: Binding affinity to 5HT2A receptor (unknown origin) at 10 uM relative to control.
The target in assay [8] is T7, Adenosine receptor A3 (Homo sapiens) (UniProt P0DMS8).
T7 sequence (whole entry): T4 sequence (P0DMS8 whole entry)
Nature of the assay: Displacement of […] from human A3AR expressed in HEK cells at 10 uM relative to control. The settings on record: filed as agonist. It counts as cell-based.

Assay [9] addresses T5, 5-hydroxytryptamine receptor 2C (Homo sapiens). The settings on record: Flp-In-T-REx-293, filed as antagonist, time 1.0 hrs.
In another assay the target is Histamine H1 receptor (Homo sapiens, UniProt P35367). As to the kind of experiment: Binding affinity to histamine H1 receptor (unknown origin) assessed as inhibition constant.
Histamine H1 receptor, sequence (P35367 whole entry): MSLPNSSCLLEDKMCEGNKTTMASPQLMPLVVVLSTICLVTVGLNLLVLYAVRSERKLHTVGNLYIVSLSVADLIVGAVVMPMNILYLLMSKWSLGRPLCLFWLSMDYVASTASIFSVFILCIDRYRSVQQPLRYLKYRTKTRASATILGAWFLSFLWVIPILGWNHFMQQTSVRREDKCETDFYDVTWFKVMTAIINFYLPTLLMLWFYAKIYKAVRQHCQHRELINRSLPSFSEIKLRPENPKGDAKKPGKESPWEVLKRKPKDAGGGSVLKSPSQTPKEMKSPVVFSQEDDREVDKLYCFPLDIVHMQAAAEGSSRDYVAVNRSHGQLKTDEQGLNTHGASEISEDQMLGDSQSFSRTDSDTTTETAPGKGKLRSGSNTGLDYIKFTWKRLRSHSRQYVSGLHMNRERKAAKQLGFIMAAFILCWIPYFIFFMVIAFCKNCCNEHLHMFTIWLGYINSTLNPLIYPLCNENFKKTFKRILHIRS
The target of assay [10] is T8, 5-hydroxytryptamine receptor 2C (Homo sapiens, UniProt P28335).
T8 sequence (P28335 whole entry): T5 sequence (whole entry)
As to the kind of experiment: Displacement of [3H]-Mesulergine from human 5-HT2C expressed in Flp-In-T-REx-293 cells assessed as inhibition constant incubated for 1 hr. Format: cell-based. The note with it: read-out: Ki.

Assay [11] addresses T2, 5-hydroxytryptamine receptor 2A. The note with it: Flp-In-T-REx-293, time 1.0 hrs.

T2 sequence (P28223 whole entry): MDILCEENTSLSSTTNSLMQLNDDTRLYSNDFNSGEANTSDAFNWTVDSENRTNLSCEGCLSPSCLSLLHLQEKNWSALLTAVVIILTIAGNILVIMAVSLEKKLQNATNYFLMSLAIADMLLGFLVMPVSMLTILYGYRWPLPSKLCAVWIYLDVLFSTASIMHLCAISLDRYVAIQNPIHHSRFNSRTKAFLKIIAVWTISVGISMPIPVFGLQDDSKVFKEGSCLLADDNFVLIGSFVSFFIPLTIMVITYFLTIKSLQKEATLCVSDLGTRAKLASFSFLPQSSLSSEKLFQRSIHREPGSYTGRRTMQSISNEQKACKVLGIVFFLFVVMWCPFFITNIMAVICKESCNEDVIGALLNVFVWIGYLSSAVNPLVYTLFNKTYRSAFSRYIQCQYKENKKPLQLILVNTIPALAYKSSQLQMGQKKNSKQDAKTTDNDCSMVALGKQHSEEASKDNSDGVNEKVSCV
Adenosine receptor A2a (Homo sapiens), sequence (P29274 whole entry): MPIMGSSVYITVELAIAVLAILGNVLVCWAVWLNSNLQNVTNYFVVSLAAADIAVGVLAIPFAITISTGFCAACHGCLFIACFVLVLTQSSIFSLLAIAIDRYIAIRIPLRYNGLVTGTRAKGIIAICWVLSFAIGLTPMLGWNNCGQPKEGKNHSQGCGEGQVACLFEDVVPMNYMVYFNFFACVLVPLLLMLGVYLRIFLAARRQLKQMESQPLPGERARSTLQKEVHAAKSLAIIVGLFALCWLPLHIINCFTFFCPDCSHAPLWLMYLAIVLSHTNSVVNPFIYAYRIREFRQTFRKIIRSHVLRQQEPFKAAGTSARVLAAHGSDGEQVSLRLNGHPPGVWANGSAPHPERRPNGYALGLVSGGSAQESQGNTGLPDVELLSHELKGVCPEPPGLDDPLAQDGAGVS
5-hydroxytryptamine receptor 1D, sequence (P28221 whole entry): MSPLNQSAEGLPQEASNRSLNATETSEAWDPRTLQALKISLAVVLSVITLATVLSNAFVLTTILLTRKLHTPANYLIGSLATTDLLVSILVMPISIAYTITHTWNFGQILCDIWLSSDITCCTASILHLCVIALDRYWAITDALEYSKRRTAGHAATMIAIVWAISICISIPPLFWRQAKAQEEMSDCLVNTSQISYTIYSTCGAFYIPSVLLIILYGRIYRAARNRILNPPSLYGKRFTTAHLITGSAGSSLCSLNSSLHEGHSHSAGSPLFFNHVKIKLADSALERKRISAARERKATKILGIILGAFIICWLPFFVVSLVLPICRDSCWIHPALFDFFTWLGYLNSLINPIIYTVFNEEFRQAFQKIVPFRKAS

Consider `CCSC[C@@]12C[C@@H]1[C@@H](n1cnc3c(NC(C4CCCC4)C4CCCC4)nc(Cl)nc31)[C@H](O)[C@@H]2O`, for which the Ki in assay [1] worked out at 5200 nM; at D(4) dopamine receptor, 3600 nM; in assay [4], 1500 nM; in assay [5], 2100 nM; on Adenosine receptor A3 it was 6280 nM. Also, the Activity in [2] is 38%; in assay [3] it was -48%; in assay [6], 47%.
Take `OC[C@@]12C[C@@H]1[C@@H](n1cnc3c(NC(C4CCC4)C4CCC4)nc(I)nc31)[C@H](O)[C@@H]2O`: the Ki on Adenosine receptor A1 worked out at 204 nM; on Translocator protein it was 2100 nM; on Adenosine receptor A3, 34300 nM. The values for the Activity in [7] and in assay [3] were 16% and 37%, respectively.
Consider `OC[C@@]12C[C@@H]1[C@@H](n1cnc3c(N[C@@H](C4CCC4)C4CC4)nc(I)nc31)[C@H](O)[C@@H]2O`, for which the Activity in assay [8] was determined as 42%; in assay [2], 26%. In addition, the figures for the negative logarithm of the Kb (pKb) in assay [9] and in [11] were 6.83 and less than 5, respectively. The Ki at Adenosine receptor A1 turned out to be 63.9 nM; on Histamine H1 receptor, 2100 nM; in assay [10] it was 552 nM.
